According to patent US11252953B2, “Repellent and attractant composition for dichromatic animals” (The United States of America, Represented by the Secretary …, priority 2016, dated 2022):

What was measured:
female common voles = details: wheat treated with 5% anthraquinone and chloroform; cited from earlier work
wild boar = details: corn treated with 0.64% anthraquinone; cited from earlier work
red-winged blackbirds = details: range printed jointly for Canada geese and red-winged blackbirds; cited from earlier work
ring-necked pheasants = details: in vivo; cited from earlier work
male common voles = details: wheat treated with 15% anthraquinone and chloroform; cited from earlier work
[1] = test system: Richardson's ground squirrels; assay: Richardson's ground squirrel concentration-response feeding experiment; assay type: in vivo, Urocitellus richardsonii Sabine
deer mice = assay: Deer mouse concentration-response feeding experiment; assay type: in vivo, Peromyscus maniculatus Wagner
cottontail rabbits = assay: Cottontail rabbit concentration-response feeding experiment; assay type: in vivo, Sylvilagus audubonii Baird
possums [2] = details: 0.25% anthraquinone; cited from earlier work
California voles = assay: California vole concentration-response feeding experiment; assay type: in vivo, Microtus californicus Peale
brown rats = details: 0.04% and 0.08% anthraquinone; control baits 0.01-0.03% cinnamon, green carrots; cited from earlier work
male house mice = details: wheat treated with 15% anthraquinone and chloroform; cited from earlier work
possums [3] = details: 0.08% anthraquinone; cited from earlier work
Canada geese = details: range printed jointly for Canada geese and red-winged blackbirds; cited from earlier work
black rats = details: 0.1% and 0.25% anthraquinone; cited from earlier work
common grackles = details: in vivo; cited from earlier work
[4] = test system: black-tailed prairie dogs; details: corn seeds treated with 0.5-4.0% anthraquinone; cited from earlier work
American crows = details: in vivo; cited from earlier work

O=C1c2ccccc2C(=O)c2ccccc21 [anthraquinone, 9,10-anthraquinone]
less treated wheat consumed than wheat treated only with chloroform (female common voles): 47% | less treated corn consumed than untreated corn (wild boar): 86.5% | predicted threshold concentration (red-winged blackbirds): 1,450-1,475 ppm | predicted threshold concentration (ring-necked pheasants): 10,450 ppm | consumption of treated wheat relative to wheat treated only with chloroform (male common voles): no difference | feeding repellency ([1]; whole oats treated with 0.5-2.0% anthraquinone (target; actual 5,380-18,500 ppm)): 40-56% | repellency ([1]; whole oats treated with 18,500 ppm anthraquinone): 56% | repellency (deer mice; whole oats treated with 0.25-2.0% anthraquinone (target; actual 2,820-19,900 ppm)): 19-52% | repellency (deer mice; whole oats treated with 10,800 ppm anthraquinone): 52% | anthraquinone dosage for observed threshold repellency (cottontail rabbits): 149.9±28.1 mg anthraquinone/kg BM | repellency (cottontail rabbits; oats treated with 4,790 ppm anthraquinone): 68% | repellency (cottontail rabbits; oats treated with 10,300 ppm anthraquinone): 75% | feeding repellency (cottontail rabbits; whole oats treated with 0.5-2.0% anthraquinone (target; actual 4,790-19,600 ppm)): 68-85% | feeding repellency (cottontail rabbits; whole oats treated with 19,600 ppm anthraquinone (target 2.0%)): 85% | response to anthraquinone-treated baits (possums [2]): aversion | anthraquinone dosage for observed threshold repellency (California voles; at 18,300 ppm anthraquinone (84% repellency), mean vole BM=38.1 g): 365.0±103.1 mg anthraquinone/kg BM | threshold concentration (California voles; can effectively repel voles from treated food): 1.3 % (wt/wt) | predicted threshold concentration (California voles; concentration needed to achieve 80% feeding repellency, non-linear regression, treated oats): about 13,400 ppm | repellency (California voles; whole oats treated with 0.25-2.0% anthraquinone (target, wt/wt; actual 2,050-18,300 ppm), test consumption (day 4) relative to pre-test consumption): 24-84% | repellency (California voles; whole oats treated with 18,300 ppm anthraquinone): 84% | consumption of anthraquinone-treated baits relative to control baits (brown rats): less | consumption of treated wheat relative to wheat treated only with chloroform (male house mice): greater consumption | consumption of anthraquinone-treated baits relative to control baits (possums [3]): no different | predicted threshold concentration (Canada geese): 1,450-1,475 ppm | response to anthraquinone-treated baits (black rats): aversion | predicted threshold concentration (common grackles): 9,200 ppm | repellency [4]: 24-37% | predicted threshold concentration (American crows): 5,200 ppm
